Where two headings read alike, the source gives them in different places.
System: reagin-mediated rat Passive Cutaneous Anaphylaxis (PCA)
Assay: Reagin-mediated rat Passive Cutaneous Anaphylaxis (PCA) screening test
Assay type: in vivo, Sprague-Dawley rats
Description: The reagin-mediated rat Passive Cutaneous Anaphylaxis (PCA) screening test used to evaluate the present compounds is generally regarded as one of the best animal models for use in predicting the antiallergy activity of test compounds in man. Briefly, the method consists of passive sensitization of skin sites on the test animals with reaginic antibodies followed after 24 hours by administration of the test drug and antigen challenge. The allergic response is measured by use of Evans' blue dye and is evaluated by the spot diameter at the injection side. Details of the test are provided below.
A substituted ovalbumin antigen is used both as immunogen and challenging antigen. The antigen is prepared as follows: 500 mg. ovalbumin (EA) and 500 mg. K2 CO3 are dissolved in 25 ml. distilled H2 O and stirred at room temperature for 5 minutes. Five hundred (500) mg. dinitrobenzene sulfonic acid, Na^+ salt, (previously recrystallized from hot absolute ethanol) is then added slowly with continued stirring. The reaction mixture is then immediately placed in the dark and allowed to proceed for 2 hours with constant stirring. After 2 hours the mixture is placed in suitable dialysis tubing and dialyzed against 5 changes (4 liters each) of distilled H2 O at 5° C. After dialysis the product is lyophilized and stored at room temperature in a brown or amber container. The antigen obtained will appear as a light yellow, amorphous solid which is very soluble in water or saline. It is designated as DNP denatured ovalbumin (DNP-d EA).
Adult, male Sprague-Dawley rats are used as a source or reagin-rich antisera for the PCA model. Immunization is by a combination of DNP-d EA on Al(OH)3 gel and B. pertussis vaccine. Preparation of the DNP-d EA - gel immunogen is as follows: Dissolve the DNP-d EA in TBS so as to give a concentration of 10 mg./ml. Slowly add 1 ml. of this solution to 10 ml. Al(OH)3 gel (10 mg. solids/ml.) with constant stirring at room temperature. Stir the mixture an additional 30 minutes to insure a uniform adsorption of antigen on gel.
The resulting preparation is then used in combination with phase I B. pertussis vaccine to immunize male S/D rats as follows: For each rat administer 0.1 ml. DNP-d EA - gel suspension intramuscularly in each hind leg (200 μg DNP-d EA and 2 mg. gel total dose). Follow these injections by the intraperitoneal administration of 1.0 ml. B. pertussis vaccine (10-20 × 10^9 organisms). The use of light ether anesthesia during this procedure is recommended to insure proper intramuscular and intraperitoneal injections. Nine days following immunization (but no longer than 10) the animals are exsanguinated by cardiac puncture or abdominal aorta cannulation under ether or pentobarbital anesthesia. The collected whole blood is allowed to clot, the serum separated by centrifugation and the individual serum samples stored frozen until assayed for IgE content.
Individual serum samples should be screened for reaginic antibody concentration before being pooled with other sera, as not all rats respond to immunization procedures with reagin production. A 1:50 saline dilution of serum from each immunized rat is used for this purpose. Intradermal injections of 0.05 ml. of the diluted sera are made in the shaven backs of two small female recipient rats, 100-120 gms. Several serum samples can be tested simultaneously in recipient animals. After a 24 to 48 hour latent period antigen challenge is accomplished by intravenous administration to each rat of 1 mg. DNP-d EA in 0.5 ml. 0.5% Evans' blue dye in saline. Sera which show positive PCA reactions at the 1:50 dilution, as measured 20 to 30 minutes post-challenge are pooled, dispensed in small aliquots and stored at -70° C. or lower until used. Negative sera may be discarded.
The IgE titer of the antisera pool should then be determined. […]

[1] = po, 10 minutes prior to antigen challenge, Table 1, read-out: Rat PCA Test ID50, p.o. (dose of compound that inhibits 50% of the response)
[2] = iv, 1-5 minutes prior to antigen challenge (DSCG: at the time of antigen challenge), read-out: Rat PCA Test ID50, i.v. (dose of compound that inhibits 50% of the response)
[3] = po, 10 minutes prior to antigen challenge, Table II and its footnote, read-out: Rat PCA Test ID50, p.o. (dose of compound that inhibits 50% of the response)

| SMILES | ED50 [1] [mg/kg] | also measured |
| --- | --- | --- |
| CCOC(=O)c1cnc2n(c1=O)CC(CC)c1ccccc1-2 (racemic) [Example 10B, ethyl (±)-7-Ethyl-6,7-dihydro-4-oxo-4H-pyrimido[2,1-a]isoquinoline-3-carboxylate] | 0.13 |  |
| C=CCC1Cn2c(ncc(C(=O)OCC)c2=O)-c2cc(OC)ccc21 (racemic) [Example 10D, ethyl (±)-7-Allyl-6,7-dihydro-10-methoxy-4-oxo-4H-pyrimido[2,1-a]-3-carboxylate] | ~0.31 |  |
| CCC1Cn2c(ncc(C(=O)O)c2=O)-c2ccccc21 (racemic) [Example 11C, (±)-7-ethyl-6,7-dihydro-4-oxo-4H-pyrimido[2,1-a]isoquinoline-3-carboxylic Acid] | 0.048 |  |
| C=CCC1Cn2c(ncc(C(=O)O)c2=O)-c2cc(OC)ccc21 (racemic) [Example 11E, (±)-7-allyl-6,7-dihydro-10-methoxy-4-oxo-4H-pyrimido[2,1-a]isoquinoline-3-carboxylic Acid] | ~0.077 |  |
| CCOC(=O)c1cnc2n(c1=O)CC(CC(OC)OC)c1ccc(OC)cc1-2 (racemic) [Example 22 (CH2 CH(OMe)2), Ethyl (±)-6,7-Dihydro-7-(2,2-dimethoxyethyl)-10-methoxy-4-oxo-4H-pyrimido[2,1-a]isoquinoline-3-carboxylate] | ~3.3 |  |
| CCOC(=O)c1cnc2n(c1=O)CC(CC=O)c1ccc(OC)cc1-2 (racemic) [Example 22 (CH2 CHO), Ethyl (±)-7-Formylmethyl-6,7-dihydro-10-methoxy-4-oxo-4H-pyrimido[2,1-a]isoquinoline-3-carboxylate] | ~20 |  |
| CCC1Cn2c(ncc(-c3nnn[nH]3)c2=O)-c2ccccc21 (racemic) [Example 23, (±)-7-Ethyl-6,7-dihydro-3-(1H-tetrazol-5-yl)-4H-pyrimido[2,1-a]isoquinol-4-one] | 0.1 |  |
| O=C(O)c1cnc2c3ccccc3ccn2c1=O [2,3, 4-Oxo-4H-pyrimido[2,1-a]isoquinoline-3-carboxylic Acid] |  | ED50 [2]: 0.33 mg/kg |
| CCOC(=O)c1cnc2c3ccccc3ccn2c1=O [Example 1, Ethyl 4-Oxo-4H-pyrimido[2,1-a]isoquinoline-3-carboxylate] |  | ED50 [3]: > 5 mg/kg |
| CCOC(=O)c1cnc2c3ccccc3ccn2c1=N [Example 3A, Ethyl 4-Imino-4H-pyrimido[2,1-a]isoquinoline-3-carboxylate] |  | ED50 [3]: ~0.19 mg/kg |
| O=C(O)c1cnc2c3ccccc3c(O)cn2c1=O [Example 5, 7-Hydroxy-4-oxo-4H-pyrimido[2,1-a]isoquinoline-3-carboxylic Acid] |  | ED50 [2]: ~1.7 mg/kg |
| CCOC(=O)c1cnc2n(c1=O)CCc1ccccc1-2 [Example 6, Ethyl 6,7-Dihydro-4-oxo-4H-pyrimido[2,1-a]isoquinoline-3-carboxylate] | 2.3 |  |
| O=C(O)c1cnc2n(c1=O)CCc1ccccc1-2 [Example 7, 6,7-Dihydro-4-oxo-4H-pyrimido[2,1-a]isoquinoline-3-carboxylic Acid] | 7.9 |  |
| O=c1c(-c2nnn[nH]2)cnc2c3ccccc3ccn12 [Example 8, 3-(1H-Tetrazol-5-yl)-4H-pyrimido[2,1-a]isoquinol-4-one] |  | ED50 [2]: 0.04 mg/kg |
| CCOC(=O)c1cnc2n(c1=O)CCc1cc(OC)ccc1-2 [Example 9, Ethyl 6,7-Dihydro-9-methoxy-4-oxo-4H-pyrimido[2,1-a]isoquinoline-3-carboxylate] | ~13 |  |
| CCOC(=O)c1cnc2n(c1=O)CCc1ccc(OC)cc1-2 [Example 10A, ethyl 6,7-Dihydro-10-methoxy-4-oxo-4H-pyrimido[2,1-a]isoquinoline-3-carboxylate] | ~0.81 |  |
| CCOC(=O)c1cnc2n(c1=O)CCc1cc(OC)c(OC)cc1-2 [Example 10C, ethyl 6,7-Dihydro-9,10-dimethoxy-4-oxo-4H-pyrimido[2,1-a]isoquinoline-3-carboxylate] | ~0.37 |  |

| SMILES | ED50 [1] [mg/kg] | also measured |
| --- | --- | --- |
| COc1ccc2c(c1)CCn1c-2ncc(C(=O)O)c1=O [Example 11A, 6,7-dihydro-9-methoxy-4-oxo-4H-pyrimido[2,1-a]isoquinoline-3-carboxylic Acid] | 2.6 |  |
| COc1ccc2c(c1)-c1ncc(C(=O)O)c(=O)n1CC2 [Example 11B, 6,7-dihydro-10-methoxy-4-oxo-4H-pyrimido[2,1-a]isoquinoline-3-carboxylicAcid] | ~0.48 |  |
| COc1cc2c(cc1OC)-c1ncc(C(=O)O)c(=O)n1CC2 [Example 11D, 6,7-dihydro-9,10-dimethoxy-4-oxo-4H-pyrimido[2,1-a]isoquinoline-3-carboxylic Acid] | ~0.31 |  |
| CCOC(=O)c1cnc2c3ccc(OC)cc3ccn2c1=O [Example 12, Ethyl 9-Methoxy-4-oxo-4H-pyrimido[2,1-a]isoquinoline-3-carboxylate] |  | ED50 [3]: ~31 mg/kg |
| CCOC(=O)c1cnc2c3cc(OC)ccc3ccn2c1=O [Example 13A, ethyl 10-Methoxy-4-oxo-4H-pyrimido[2,1-a]isoquinoline-3-carboxylate] |  | ED50 [3]: ~0.9 mg/kg |
| CCOC(=O)c1cnc2c3ccccc3c(CC)cn2c1=O [Example 13B, ethyl 7-Ethyl-4-oxo-4H-pyrimido[2,1-a]isoquinoline-3-carboxylate] |  | ED50 [3]: ~5 mg/kg |
| CCOC(=O)c1cnc2c3cc(OC)c(OC)cc3ccn2c1=O [Example 13C, ethyl 9,10-Dimethoxy-4-oxo-4H-pyrimido[2,1-a]isoquinoline-3-carboxylate] |  | ED50 [3]: ~2.63 mg/kg |
| C=CCc1cn2c(=O)c(C(=O)OCC)cnc2c2cc(OC)ccc12 [Example 14, Ethyl 7-Allyl-10-methoxy-4-oxo-4H-pyrimido[2,1-a]isoquinoline-3-carboxylate] |  | ED50 [3]: > 5 mg/kg |
| CCCc1cn2c(=O)c(C(=O)OCC)cnc2c2cc(OC)ccc12 [Example 15, Ethyl 10-Methoxy-4-oxo-7-propyl-4H-pyrimido[2,1-a]isoquinoline-3-carboxylate] |  | ED50 [3]: ~16 mg/kg |
| COc1ccc2ccn3c(=O)c(C(=O)O)cnc3c2c1 [Example 16, 10-Methoxy-4-oxo-4H-pyrimido[2,1-a]isoquinoline-3-carboxylic acid] |  | ED50 [2]: ~1 mg/kg |
| CCc1cn2c(=O)c(C(=O)O)cnc2c2ccccc12 [Example 17A, 7-ethyl-4-oxo-4H-pyrimido[2,1-a]isoquinoline-3-carboxylic Acid] |  | ED50 [2]: ~0.048 mg/kg |
| COc1cc2ccn3c(=O)c(C(=O)O)cnc3c2cc1OC [Example 17B, 9,10-dimethoxy-4-oxo-4H-pyrimido[2,1-a]isoquinoline-3-carboxylic Acid] |  | ED50 [3]: ~0.01 mg/kg |
| C=CCc1cn2c(=O)c(C(=O)O)cnc2c2cc(OC)ccc12 [Example 17C, 7-allyl-10-methoxy-4-oxo-4H-pyrimido[2,1-a]isoquinoline-3-carboxylic Acid] |  | ED50 [2]: ~0.53 mg/kg |
| CCCc1cn2c(=O)c(C(=O)O)cnc2c2cc(OC)ccc12 [Example 17D, 10-methoxy-4-oxo-7-propyl-4H-pyrimido[2,1-a]isoquinoline-3-carboxylic Acid] |  | ED50 [2]: ~0.071 mg/kg |
| COc1ccc2c(ccn3c(=O)c(C(=O)O)cnc23)c1 [Example 18, 9-Methoxy-4-oxo-4H-pyrimido[2,1-a]isoquinoline-3-carboxylic Acid] |  | ED50 [2]: ~1.5 mg/kg |
| O=C(O)c1cnc2n(c1=O)CCc1ccc(O)cc1-2 [Example 19, 6,7-Dihydro-10-hydroxy-4-oxo-4H-pyrimido[2,1-a]isoquinoline-3-carboxylic Acid] | ~1.2 |  |
| O=C(O)c1cnc2n(c1=O)CCc1cc(O)c(O)cc1-2 [Example 20, 6,7-Dihydro-9,10-dihydroxy-4-oxo-4H-pyrimido[2,1-a]isoquinoline-3-carboxylic Acid] | ~0.077 |  |
